Assay results from PubChem BioAssay AID248 (DTP/NCI, 2004).
Several values for one entry are separate records, joined by “and”; a condition that tells them apart may be missing. Identical values can stand only once. Inconclusive results and toxic doses are left out. Rule as the data show it: active = T/C of 150% or more; inactive = T/C below 125%.

System: L1210 leukemia ip in BDF1 mice, survival T/C
Assay: NCI In Vivo Anticancer Drug Screen. Data for tumor model L1210 Leukemia (intraperitoneal) in B6D2F1 (BDF1) mice
Conditions: endpoint: mean survival time, higher = longer survival
Method in brief: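 Read-out is survival time, reported as the treated-group measurement over the vehicle-control measurement.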

[1] = dose: 100.0 mg/kg/injection, schedule: Q04DX002 (ip), vehicle: saline
[2] = dose: 200.0 mg/kg/injection, schedule: Q04DX002 (ip), vehicle: saline
[3] = dose: 400.0 mg/kg/injection, schedule: Q04DX002 (ip), vehicle: saline
[4] = dose: 200.0 mg/kg/injection, schedule: Q01DX009 (ip), vehicle: Klucel (hydroxypropylcellulose) (HPC)
[5] = dose: 400.0 mg/kg/injection, schedule: Q01DX009 (ip), vehicle: Klucel (hydroxypropylcellulose) (HPC)
[6] = dose: 100.0 mg/kg/injection, schedule: Q04DX003 (ip), vehicle: Klucel (hydroxypropylcellulose) (HPC)
[7] = dose: 200.0 mg/kg/injection, schedule: Q04DX003 (ip), vehicle: Klucel (hydroxypropylcellulose) (HPC)
[8] = dose: 400.0 mg/kg/injection, schedule: Q04DX003 (ip), vehicle: Klucel (hydroxypropylcellulose) (HPC)
[9] = dose: 100.0 mg/kg/injection, schedule: Q04DX003 (ip), vehicle: saline
[10] = dose: 200.0 mg/kg/injection, schedule: Q04DX003 (ip), vehicle: saline
[11] = dose: 100.0 mg/kg/injection, schedule: Q01DX001 (ip), vehicle: other
[12] = dose: 200.0 mg/kg/injection, schedule: Q01DX001 (ip), vehicle: other
[13] = dose: 400.0 mg/kg/injection, schedule: Q01DX001 (ip), vehicle: other
[14] = dose: 100.0 mg/kg/injection, schedule: Q01DX009 (ip), vehicle: Klucel (hydroxypropylcellulose) (HPC)
[15] = dose: 100.0 mg/kg/injection, schedule: Q01DX001 (ip), vehicle: saline
[16] = dose: 200.0 mg/kg/injection, schedule: Q01DX001 (ip), vehicle: saline
[17] = dose: 400.0 mg/kg/injection, schedule: Q01DX001 (ip), vehicle: saline

Measured: T/C

CN(C)CCCN1c2ccccc2Sc2cc(C=[N+](C)C)ccc21
inactive: dose: 100.0 mg/kg/injection, schedule: Q04DX003 (sc), vehicle: olive oil, sesame oil, peanut oil 103 % of control | dose: 200.0 mg/kg/injection, schedule: Q04DX003 (sc), vehicle: olive oil, sesame oil, peanut oil 98 % of control | dose: 400.0 mg/kg/injection, schedule: Q04DX003 (sc), vehicle: olive oil, sesame oil, peanut oil 108 % of control

CCCCC(=O)N1CCOCC1
inactive: [1] 107 % of control | [2] 101 % of control | [3] 107 % of control

Cc1oc2c(O)ccc(N=Nc3cccc([N+](=O)[O-])c3)c2c1C
inactive: [4] 93 % of control | [5] 90 % of control

OC1CC2CCC(C2)C1(O)c1ccccc1 (stereo not drawn)
inactive: [6] 93 % of control | [7] 117 % of control | [8] 93 % of control

CC(C)N(C(=O)Nc1cccc(C(F)(F)F)c1)C1CCCCC1
inactive: dose: 100.0 mg/kg/injection, schedule: Q01DX009 (ip), vehicle: gum acacia 90 % of control | dose: 200.0 mg/kg/injection, schedule: Q01DX009 (ip), vehicle: gum acacia 98 % of control | dose: 400.0 mg/kg/injection, schedule: Q01DX009 (ip), vehicle: gum acacia 88 % of control

C/C=C1\C(=O)O[C@@]23C=C[C@H]4C(C(=O)OC)=CO[C@@H](O[C@H]12)[C@H]43
inactive: dose: 5.0 mg/kg/injection, schedule: Q01DX001 (ip), vehicle: saline 103 % of control | dose: 10.0 mg/kg/injection, schedule: Q01DX001 (ip), vehicle: saline 103 % of control | dose: 20.0 mg/kg/injection, schedule: Q01DX001 (ip), vehicle: saline 106 % of control | dose: 40.0 mg/kg/injection, schedule: Q01DX001 (ip), vehicle: saline 103 % of control

O=C(O)c1nc2nc(Cl)c(Cl)nc2[nH]1
inactive: dose: 50.0 mg/kg/injection, schedule: Q01DX009 (ip), vehicle: saline 98 % of control | dose: 100.0 mg/kg/injection, schedule: Q01DX009 (ip), vehicle: saline 101 % of control and 90 % of control | [9] 100 % of control | dose: 200.0 mg/kg/injection, schedule: Q01DX009 (ip), vehicle: saline 93 % of control and 96 % of control | [10] 103 % of control | dose: 300.0 mg/kg/injection, schedule: Q01DX009 (ip), vehicle: saline 102 % of control | dose: 400.0 mg/kg/injection, schedule: Q01DX009 (ip), vehicle: saline 91 % of control

COc1ccccc1C1CCCCC1=O (stereo not drawn)
inactive: [11] 105 % of control | [12] 96 % of control | [13] 89 % of control

CCN(CCCCOC(=O)c1ccc(OC)c(OC)c1)C(C)Cc1ccc(OC)cc1 (stereo not drawn)
inactive: dose: 9.37 mg/kg/injection, schedule: Q01DX009 (ip), vehicle: saline 95 % of control | dose: 18.75 mg/kg/injection, schedule: Q01DX009 (ip), vehicle: saline 87 % of control | dose: 18.75 mg/kg/injection, schedule: Q04DX003 (ip), vehicle: saline 114 % of control | dose: 37.5 mg/kg/injection, schedule: Q01DX009 (ip), vehicle: saline 101 % of control | dose: 37.5 mg/kg/injection, schedule: Q04DX003 (ip), vehicle: saline 100 % of control | dose: 75.0 mg/kg/injection, schedule: Q01DX009 (ip), vehicle: saline 108 % of control | dose: 75.0 mg/kg/injection, schedule: Q04DX003 (ip), vehicle: saline 100 % of control | dose: 150.0 mg/kg/injection, schedule: Q04DX003 (ip), vehicle: saline 105 % of control

CCCCCCS(=O)(=O)c1n[nH]c(=O)[nH]c1=O
inactive: [11] 98 % of control | [12] 95 % of control | [13] 101 % of control

O=C1c2ccccc2C(=O)c2c(Cl)ccc(O)c21
inactive: [14] 98 % of control | [6] 97 % of control | [4] 105 % of control | [7] 97 % of control | [5] 101 % of control | [8] 96 % of control

CCC(=O)C(CCN1CCC(n2c(=O)[nH]c3ccccc32)CC1)(c1ccccc1)c1ccccc1
inactive: dose: 0.2 mg/kg/injection, schedule: Q01DX009 (ip), vehicle: saline with Tween-80 90 % of control | dose: 0.4 mg/kg/injection, schedule: Q01DX009 (ip), vehicle: saline with Tween-80 89 % of control | dose: 0.78 mg/kg/injection, schedule: Q01DX009 (ip), vehicle: saline with Tween-80 88 % of control | dose: 0.8 mg/kg/injection, schedule: Q01DX009 (ip), vehicle: saline with Tween-80 104 % of control | dose: 3.13 mg/kg/injection, schedule: Q01DX009 (ip), vehicle: saline with Tween-80 98 % of control | dose: 6.25 mg/kg/injection, schedule: Q01DX009 (ip), vehicle: saline with Tween-80 93 % of control and 89 % of control | dose: 12.5 mg/kg/injection, schedule: Q01DX009 (ip), vehicle: saline with Tween-80 95 % of control | dose: 25.0 mg/kg/injection, schedule: Q01DX009 (ip), vehicle: saline with Tween-80 90 % of control | dose: 50.0 mg/kg/injection, schedule: Q01DX009 (ip), vehicle: saline with Tween-80 86 % of control | dose: 100.0 mg/kg/injection, schedule: Q01DX009 (ip), vehicle: saline with Tween-80 96 % of control and 92 % of control

Cc1ccc(C)c(NC(=O)Nc2ccc(Nc3ccccc3)cc2)c1
inactive: [14] 88 % of control | [5] 91 % of control

Cc1[nH]c2ccc(N=CN(C)C)cc2c1C
inactive: dose: 100.0 mg/kg/injection, schedule: Q04DX002 (ip), vehicle: saline with Tween-80 94 % of control

Cc1nc(N)n(C)n1
inactive: [1] 104 % of control | [2] 101 % of control | [3] 101 % of control

COC(C)C1(C)NC(=O)NC1=O (stereo not drawn)
inactive: [15] 114 % of control | [16] 110 % of control | [17] 102 % of control

NC(=S)N/N=C1\c2ccccc2-c2c(F)c(F)c(F)c(F)c21
inactive: dose: 5.0 mg/kg/injection, schedule: Q01DX001 (ip), vehicle: carboxymethylcellulose (CMC) 96 % of control | dose: 10.0 mg/kg/injection, schedule: Q01DX001 (ip), vehicle: carboxymethylcellulose (CMC) 107 % of control | dose: 20.0 mg/kg/injection, schedule: Q01DX001 (ip), vehicle: carboxymethylcellulose (CMC) 96 % of control

Cn1cnc2cnc([N+](C)(C)C)nc21
inactive: [9] 103 % of control | [10] 114 % of control

CC12CCC3C(CCC4=CC(=O)CCC43C)C1CCCN2 (stereo not drawn)
inactive: dose: 75.0 mg/kg/injection, schedule: Q01DX001 (sc), vehicle: steriod suspending solution 93 % of control | dose: 150.0 mg/kg/injection, schedule: Q01DX001 (sc), vehicle: steriod suspending solution 90 % of control

Nc1c(C(=O)O)cc(Br)c2c1C(=O)c1ccccc1C2=O
inactive: [6] 97 % of control | [7] 95 % of control

CCCCC(=O)N/N=C/c1ccc(Cl)c([N+](=O)[O-])c1
inactive: [15] 91 % of control | [16] 89 % of control | [17] 91 % of control

c1ccc(CCN2CCC(CCc3c[nH]c4ccccc34)CC2)cc1
inactive: dose: 50.0 mg/kg/injection, schedule: Q01DX001 (ip), vehicle: saline 96 % of control | [15] 117 % of control
